Data on 24 compounds can be found in patent US8354441B2, “Oxazoline derivatives” (Hoffmann-La Roche Inc., priority 2009, dated 2013).

One test deals with T1, mouse TAAR1 (Mus musculus, UniProt Q923Y8).
T1 construct: expressed in transfected cells; host or cells: HEK293 (ATCC # CRL-1573), stably transfected with pIRESneo2 expression plasmid
The test is described as follows: TAAR1 radioligand binding with [3H]-rac-2-(1,2,3,4-tetrahydro-1-naphthyl)-2-imidazoline, membranes of stably transfected HEK293 cells. To be noted: first value of the cell, read-out: Ki (μM) mouse/rat: mouse. An outline of the steps:
(§1)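 Competition binding: competitors spanning 10 pM–30 μM displace 60 nM [3H]-rac-2-(1,2,3,4-tetrahydro-1-naphthyl)-2-imidazoline from stably transfected HEK293 membranes (mouse or rat receptor), 30 min, 4 °C, pH 7.0 buffer with Mg2+/Ca2+. Bound label counted after GF/C filtration; 10 μM unlabelled ligand defines non-specific binding.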

The target of another test is T2, rat TAAR1 (Rattus norvegicus, UniProt Q923Y9).
T2 construct: expressed in transfected cells; host or cells: HEK293 (ATCC # CRL-1573), stably transfected with pIRESneo2 expression plasmid
T2 sequence (Q923Y9 whole entry): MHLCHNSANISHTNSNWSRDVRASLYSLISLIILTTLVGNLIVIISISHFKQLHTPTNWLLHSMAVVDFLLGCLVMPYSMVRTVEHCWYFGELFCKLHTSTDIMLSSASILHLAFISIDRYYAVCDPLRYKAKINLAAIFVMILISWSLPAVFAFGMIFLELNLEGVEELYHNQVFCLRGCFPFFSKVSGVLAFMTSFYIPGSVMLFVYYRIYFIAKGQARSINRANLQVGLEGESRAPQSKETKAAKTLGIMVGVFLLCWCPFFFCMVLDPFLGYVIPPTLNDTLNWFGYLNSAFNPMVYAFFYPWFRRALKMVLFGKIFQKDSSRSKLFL
The test is described as above. As to conditions: second value of the cell, read-out: Ki (μM) mouse/rat: rat. An outline of the steps:
as §1

T1 sequence (Q923Y8 whole entry): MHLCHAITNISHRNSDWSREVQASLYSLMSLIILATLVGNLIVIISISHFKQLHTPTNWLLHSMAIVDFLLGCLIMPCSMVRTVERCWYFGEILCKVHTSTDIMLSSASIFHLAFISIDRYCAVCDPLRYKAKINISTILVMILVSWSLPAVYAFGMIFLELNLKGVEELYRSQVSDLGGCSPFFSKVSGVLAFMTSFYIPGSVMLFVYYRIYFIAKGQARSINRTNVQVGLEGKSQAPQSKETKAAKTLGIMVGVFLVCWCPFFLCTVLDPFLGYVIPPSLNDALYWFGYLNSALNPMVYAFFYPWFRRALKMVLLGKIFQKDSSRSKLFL

In the case of `NC1=N[C@@H](CCc2ccc(NC(=O)Nc3cccc(Cl)c3)cc2)CO1` [Example 95, 1-{4-[2-((S)-2-Amino-4,5-dihydro-oxazol-4-yl)-ethyl]-phenyl}-3-(3-chloro-phenyl)-urea], the Ki at mouse TAAR1 and at rat TAAR1 was 0.0001 µM in each case.

In the case of `NC1=N[C@@H](CCc2ccc(NC(=O)c3ccc(F)cn3)cc2)CO1` [Example 96, (S)-N-(4-(2-(2-amino-4,5-dihydrooxazol-4-yl)ethyl)phenyl)-5-fluoropicolinamide], the values for the Ki at mouse TAAR1 and on rat TAAR1 were 0.001 µM and 0.0006 µM, respectively.

With `COc1ccc(C(=O)Nc2ccc(CC[C@H]3COC(N)=N3)cc2)cn1` [Example 97, N-{4-[2-((S)-2-Amino-4,5-dihydro-oxazol-4-yl)-ethyl]-phenyl}-6-methoxy-nicotinamide], the Ki came to 0.0018 µM on mouse TAAR1 and 0.0015 µM at rat TAAR1.

As for `Cc1ccc(C(=O)Nc2ccc(CC[C@H]3COC(N)=N3)cc2)cn1` [Example 98, N-{4-[2-((S)-2-Amino-4,5-dihydro-oxazol-4-yl)-ethyl]-phenyl}-6-methyl-nicotinamide], the Ki is 0.0068 µM at mouse TAAR1 and 0.0019 µM on rat TAAR1.

In the case of `NC1=N[C@@H](CCc2ccc(NC(=O)c3cccnc3F)cc2)CO1` [Example 99, (S)-N-(4-(2-(2-amino-4,5-dihydrooxazol-4-yl)ethyl)phenyl)-2-fluoronicotinamide], the Ki at mouse TAAR1 amounted to 0.0081 µM; on rat TAAR1, 0.0018 µM.

Regarding `NC1=N[C@@H](CCc2ccc(NC(=O)c3cncc(F)c3)cc2)CO1` [Example 100, N-{4-[2-((S)-2-Amino-4,5-dihydro-oxazol-4-yl)-ethyl]-phenyl}-5-fluoro-nicotinamide], the Ki is 0.004 µM at mouse TAAR1 and 0.0018 µM at rat TAAR1.

`NC1=N[C@@H](CCc2ccc(NC(=O)c3ncc(C(F)(F)F)cc3Cl)cc2)CO1` [Example 101, 3-Chloro-5-trifluoromethyl-pyridine-2-carboxylic acid {4-[2-((S)-2-amino-4,5-dihydro-oxazol-4-yl)-ethyl]-phenyl}-amide]: the results for the Ki at mouse TAAR1 and on rat TAAR1 were 0.0007 µM and 0.0021 µM, respectively.

For `NC1=N[C@@H](CCc2ccc(NC(=O)c3ccc4cnccc4n3)cc2)CO1` [Example 104, [1,6]Naphthyridine-2-carboxylic acid {4-[2-((S)-2-amino-4,5-dihydro-oxazol-4-yl)-ethyl]-phenyl}-amide], the Ki on mouse TAAR1 came to 0.0034 µM; on rat TAAR1 it was 0.0014 µM.

Take `NC1=N[C@@H](CCc2ccc(NC(=O)c3ccc4cccnc4n3)cc2)CO1` [Example 105, [1,8]Naphthyridine-2-carboxylic acid {4-[2-((S)-2-amino-4,5-dihydro-oxazol-4-yl)-ethyl]-phenyl}-amide]: the Ki on mouse TAAR1 was 0.0051 µM; on rat TAAR1, 0.0011 µM.

For the compound `NC1=N[C@@H](CCc2ccc(NC(=O)c3ccc(Br)nc3)cc2)CO1` [Example 106, N-{4-[2-((S)-2-Amino-4,5-dihydro-oxazol-4-yl)-ethyl]-phenyl}-6-bromo-nicotinamide], the Ki at mouse TAAR1 was 0.0012 µM; at rat TAAR1 it was 0.0009 µM.

For `NC1=N[C@@H](CCc2ccc(NC(=O)c3cc(F)cnc3F)cc2)CO1` [Example 107, N-{4-[2-((S)-2-Amino-4,5-dihydro-oxazol-4-yl)-ethyl]-phenyl}-2,5-difluoro-nicotinamide], the Ki on mouse TAAR1 worked out at 0.0014 µM; on rat TAAR1, 0.0012 µM.

Take `NC1=N[C@@H](CCc2ccc(NC(=O)c3cnc(Cl)c(Cl)c3)cc2)CO1` [Example 109, N-{4-[2-((S)-2-Amino-4,5-dihydro-oxazol-4-yl)-ethyl]-phenyl}-5,6-dichloro-nicotinamide]: the Ki is 0.0006 µM at mouse TAAR1 and 0.0016 µM on rat TAAR1.

In the case of `NC1=N[C@@H](CCc2ccc(NC(=O)c3ccc(F)nc3F)cc2)CO1` [Example 110, N-{4-[2-((S)-2-Amino-4,5-dihydro-oxazol-4-yl)-ethyl]-phenyl}-2,6-difluoro-nicotinamide], the results for the Ki at mouse TAAR1 and on rat TAAR1 were 0.0054 µM and 0.0048 µM, respectively.

Regarding `N#Cc1ccc(C(=O)Nc2ccc(CC[C@H]3COC(N)=N3)cc2)cn1` [Example 111, N-{4-[2-((S)-2-Amino-4,5-dihydro-oxazol-4-yl)-ethyl]-phenyl}-6-cyano-nicotinamide], the Ki on mouse TAAR1 was determined as 0.004 µM; on rat TAAR1, 0.0057 µM.

`NC1=N[C@@H](CCc2ccc(NC(=O)c3cccc(Br)n3)cc2)CO1` [Example 112, 6-Bromo-pyridine-2-carboxylic acid {4-[2-((S)-2-amino-4,5-dihydro-oxazol-4-yl)-ethyl]-phenyl}-amide]: the values for the Ki at mouse TAAR1 and at rat TAAR1 were 0.0013 µM and 0.0005 µM, respectively.

On to `NC1=N[C@@H](CCc2ccc(NC(=O)c3ccc(OCC(F)(F)F)nc3)cc2)CO1` [Example 113, N-{4-[2-((S)-2-Amino-4,5-dihydro-oxazol-4-yl)-ethyl]-phenyl}-6-(2,2,2-trifluoro-ethoxy)-nicotinamide], for which the Ki on mouse TAAR1 came to 0.0006 µM; on rat TAAR1 it was 0.001 µM.

Regarding `COc1ncccc1C(=O)Nc1ccc(CC[C@H]2COC(N)=N2)cc1` [Example 115, N-{4-[2-((S)-2-Amino-4,5-dihydro-oxazol-4-yl)-ethyl]-phenyl}-2-methoxy-nicotinamide], the Ki worked out at 0.0029 µM on mouse TAAR1 and 0.0024 µM at rat TAAR1.

On to `COc1ccc(C(=O)Nc2ccc(CC[C@H]3COC(N)=N3)cc2)nc1` [Example 117, (S)-N-(4-(2-(2-Amino-4,5-dihydrooxazol-4-yl)ethyl)phenyl)-5-methoxypicolinamide], for which the Ki on mouse TAAR1 was 0.002 µM; at rat TAAR1, 0.0008 µM.

With `N#Cc1ccc(C(=O)Nc2ccc(CC[C@H]3COC(N)=N3)cc2)nc1` [Example 119, (S)-N-(4-(2-(2-Amino-4,5-dihydrooxazol-4-yl)ethyl)phenyl)-5-cyanopicolinamide], the figures for the Ki on mouse TAAR1 and on rat TAAR1 were 0.0015 µM and 0.0044 µM, respectively.

Turning to `NC1=N[C@@H](CCc2ccc(NC(=O)c3ccc(F)nc3)cc2)CO1` [Example 121, (S)-N-(4-(2-(2-Amino-4,5-dihydrooxazol-4-yl)ethyl)phenyl)-6-fluoronicotinamide], the Ki is 0.0032 µM at mouse TAAR1 and 0.0046 µM at rat TAAR1.

On to `NC1=N[C@@H](CCc2ccc(NC(=O)c3ccc(Cl)nn3)cc2)CO1` [Example 122, (S)-N-(4-(2-(2-Amino-4,5-dihydrooxazol-4-yl)ethyl)phenyl)-6-chloropyridazine-3-carboxamide], for which the Ki on mouse TAAR1 and at rat TAAR1 was 0.0043 µM throughout.

Consider `NC1=N[C@@H](CCc2ccc(NC(=O)c3cnc(N4CCCCC4)nc3)cc2)CO1` [Example 123, (S)-N-(4-(2-(2-Amino-4,5-dihydrooxazol-4-yl)ethyl)phenyl)-2-(piperidin-1-yl)pyrimidine-5-carboxamide], for which the Ki on mouse TAAR1 is 0.0007 µM; at rat TAAR1 it was 0.0017 µM.

On to `NC1=N[C@@H](CCc2ccc(NC(=O)c3cncc(Cl)c3)cc2)CO1` [Example 124, (S)-N-(4-(2-(2-Amino-4,5-dihydrooxazol-4-yl)ethyl)phenyl)-5-chloronicotinamide], for which the results for the Ki at mouse TAAR1 and on rat TAAR1 were 0.004 µM and 0.0061 µM, respectively.

`NC1=N[C@@H](CCc2ccc(NC(=O)C(F)(F)c3ccc(Cl)c(Cl)c3)cc2)CO1` [Example 125, (S)-N-(4-(2-(2-Amino-4,5-dihydrooxazol-4-yl)ethyl)phenyl)-2-(3,4-dichlorophenyl)-2,2-difluoroacetamide]: the Ki came out at 0.0006 µM at mouse TAAR1 and 0.0011 µM at rat TAAR1.
